Experimental data as given in patent publication US11472804B2, “Compositions and methods for modulating hair growth” (The Regents of the University of California, priority 2017, dated 2022).
Entries after “also recorded” stand apart in the source; their conditions may differ.

Columns and labels:
hair cycle = assay: Topical treatment of mice in telogen with UK-5099, hair cycle; type: in vivo
Method: (§1) FIG. 7A: Animals treated topically with UK-5099 (20 μM) show pigmentation and hair growth, indicative of entry into anagen, after 8 days of treatment. Full anagen, indicated by full coat of hair, is achieved after 14 days of treatment. […] Images shown are representative of at least 14 mice from 7 independent experiments. Scale bars indicate 100 micrometers. FIG. 7B: Graph showing time to observed phenotype in vehicle versus UK-5099 treated mice. n=6 mice per condition. Shown as mean±SEM. […] Ldh activity is indicated by purple stain; pink is nuclear fast red counterstain. Scale bars indicate 50 micrometers. FIG. 7D: Metabolomic analysis of Lactate on HFSCs isolated from UK-5099 treated skin for 48 hours; Each bar represents the average signal for each condition where n=9 mice pooled from 3 independent experiments. Shown as mean±SEM. Paired t-test was performed, p<0.05.
(§2) Quantification of the hair cycle across at least 6 pairs of animals (vehicle vs UK-5099) indicated a strong acceleration of the hair cycle, in as few as 6-9 days (FIG. 7B).

Ldh = Ldh enzyme activity assay in the epidermis of topically treated animals; type: in vivo, mice; conditions: topical, 48 hours during telogen
Method: as §1
To determine whether Ldha expression patterns correlate with activity of the Ldh enzyme, a colorimetric-based enzymatic assay was used to assess Ldh activity capacity in situ. Typically performed on protein lysates or aliquots with a plate reader, the Ldh activity assay was adapted to work in situ on frozen tissue sections. […]
as §2

HFSCs = assay: Metabolomic analysis of lactate on HFSCs isolated from treated skin; type: in vivo, mice; conditions: topical application, treated skin for 48 hours
Method: as §1, §2

[1] = topical treatment of animals in telogen (day 50)

N#C/C(=C\c1cn(-c2ccccc2)c2ccccc12)C(=O)O [UK-5099, (E)-2-Cyano-3-(1-phenyl-1H-indol-3-yl)acrylic acid]
acceleration of the hair cycle (hair cycle; [1]): robust acceleration of the hair cycle
proliferation of the interfollicular epidermis (hair cycle; [1]): minor hyperproliferation of the interfollicular epidermis
skin pathology, hair cycle stage (hair cycle; topical, 20 μM, at 8 weeks): enter an accelerated anagen
full anagen, indicated by full coat of hair, time of treatment (hair cycle; topical, 20 μM, mice): 14 days
pigmentation and hair growth, indicative of entry into anagen, time of treatment (hair cycle; topical, 20 μM, mice): 8 days
quantification of the hair cycle, time to acceleration (hair cycle; topical, at least 6 pairs of animals, vehicle vs UK-5099): 6 to 9 days
Ldh activity in HFSCs and interfollicular epidermis (Ldh): increased Ldh activity; also recorded: Ldh enzyme activity also seen in interfollicular epidermis
total levels of lactate in sorted HFSCs (HFSCs): increases total levels of lactate
